Data reported in article PMC4165007 (The Indian Journal of Medical Research, 2014).

Columns and labels:
pepsin = pepsin (Sus scrofa, UniProt P00791); assay: Digestion with simulated gastric fluid; type: in vitro ADME; settings: SGF pepsin, gastric pH, data not shown
purified chymotrypsin = assay: Incubation with purified chymotrypsin; type: in vitro ADME; settings: data not shown
[1] = cited from earlier work
[2] = cited from earlier work; remark: listed apart in the source
[3] = sublingual; cited from earlier work
[4] = oral; cited from earlier work

pepsin, sequence (P00791 60-385): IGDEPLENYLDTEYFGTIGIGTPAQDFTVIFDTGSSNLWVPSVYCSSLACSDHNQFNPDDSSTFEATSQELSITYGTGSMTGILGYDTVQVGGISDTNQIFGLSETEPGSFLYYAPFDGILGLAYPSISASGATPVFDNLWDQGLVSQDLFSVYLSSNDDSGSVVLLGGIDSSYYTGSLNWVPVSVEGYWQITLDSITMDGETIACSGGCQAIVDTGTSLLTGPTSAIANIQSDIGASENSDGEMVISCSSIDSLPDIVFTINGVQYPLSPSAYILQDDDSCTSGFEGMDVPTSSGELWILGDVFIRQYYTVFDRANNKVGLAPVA

OT hydrolysis on increasing the peptic digestion time to 12 h (pepsin)	effect of incubation with purified chymotrypsin (purified chymotrypsin)	Compound	stability during digestion with human gastric juice [1]	half-life of injected OT in the plasma [2] [min]	bioavailability, given sublingually in humans [3]	bioavailability, given orally to pigs [4]
did not result in OT hydrolysis	led to its hydrolysis	CC[C@H](C)[C@@H]1NC(=O)[C@H](Cc2ccc(O)cc2)NC(=O)[C@@H](N)CSSC[C@@H](C(=O)N2CCC[C@H]2C(=O)N[C@@H](CC(C)C)C(=O)NCC(N)=O)NC(=O)[C@H](CC(N)=O)NC(=O)[C@H](CCC(N)=O)NC1=O [OT, Oxytocin]	stable	5 to 7	very poor	very poor
–	–	arginine-vasopressin	stable	–	–	–
